Experimental data as given in patent US20260234129A1, “NOVEL IMIDAZOLE DERIVATIVE AND USE THEREOF” (PELEMED CO., LTD., priority 2023, published 2026).

Assays:
[1] = tested on: BaF3-ITD-FLT3 F691L cell line; assay: Cell proliferation inhibition, Alamar Blue; type: cell-based; details: 72 hours of compound treatment, read-out: Cellular (GI50) BaF3-ITD-FLT3 F691L
Protocol: (§1) The cell proliferation inhibition experiment on acute myeloid leukemia (AML) cell lines was performed using FL3-ITD-expressing AML cell line MV4-11, BaF3-ITD-FLT3 F691L cell line, and BaF3-ITD-FLT3 D835Y cell line to test FLT3 inhibitory activity. All cell lines were human-derived cell lines, and the sources and culture conditions for each cell line are as follows.
(§2) Cell viability was assessed by a resazurin redox-based assay using the Alamar Blue Assay kit (Invitrogen, USA). Specifically, MV4-11, BaF3-ITD-FLT3-F691L, and BaF3-ITD-FLT3-D835Y cells were plated in 384-well plates at 8,000 cells in 45 μL of medium. As a negative control, dimethyl sulfoxide (DMSO) was added together with the compound. After three days (72 hours) of compound treatment, 5 μL of the Alamar Blue kit reagent was added to each well of the 384-well plates, followed by incubation at 37° C. for 2 hours in a humidified CO2 incubator. After incubation, fluorescence intensity (Flu) was measured at 544 nm and 590 nm using a SpectraMax iD3 Multi Mode Microplate Reader (Molecular Devices, ID3-STD).

[2] = tested on: BaF3-ITD-FLT3 D835Y cell line; assay: Cell proliferation inhibition, Alamar Blue; type: cell-based; details: 72 hours of compound treatment, read-out: Cellular (GI50) BaF3-ITD-FLT3 D835Y
Protocol: as §1, §2

[3] = tested on: MV4-11 cells (FLT3-ITD-expressing AML cell line); assay: Cell proliferation inhibition, Alamar Blue; type: cell-based, human; details: Homo sapiens, MV4-11, 72 hours of compound treatment, read-out: Cellular (GI50) MV4-11
Protocol: as §1, §2

FLT3 = molecular target: T1, FLT3 (Homo sapiens, UniProt P36888); assay: ADP-Glo kinase assay FLT3 WT; type: biochemical; details: recombinant FLT3, 120 minutes at room temperature, read-out: Enzyme (IC50) FLT3 WT
T1 construct: Recombinant proteins containing FLT3 and FLT3(D835Y) domains were purchased from Promega; purchased Promega V4064
T1 sequence (P36888 610-943 limits assumed): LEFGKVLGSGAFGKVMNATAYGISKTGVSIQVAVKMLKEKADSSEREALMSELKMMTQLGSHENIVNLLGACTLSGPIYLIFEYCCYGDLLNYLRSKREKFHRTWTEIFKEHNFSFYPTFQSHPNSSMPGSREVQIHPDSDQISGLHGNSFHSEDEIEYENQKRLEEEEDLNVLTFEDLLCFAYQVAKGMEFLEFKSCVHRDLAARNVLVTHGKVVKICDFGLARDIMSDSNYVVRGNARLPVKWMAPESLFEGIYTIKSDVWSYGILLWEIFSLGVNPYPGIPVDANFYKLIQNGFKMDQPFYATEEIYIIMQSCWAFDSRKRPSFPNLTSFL
Protocol: FLT3 activity inhibition was measured using the ADP-Glo kinase assay method (Promega, cat #V9101). The ADP-Glo kinase assay method is a luminescent ADP detection assay method that provides a homogeneous, high-throughput screening method for measuring kinase activity by quantifying the amount of ADP produced during the kinase reaction.
The assay was performed in two steps. First, after the kinase reaction, an equal volume of ADP-Glo™ reagent was added to terminate the kinase reaction and deplete any remaining ATP. Second, a kinase detection reagent was added to convert ADP to ATP, and simultaneously the newly synthesized ATP was measured via the luciferase/luciferin reaction. The light produced was measured using a luminometer.
Recombinant proteins containing FLT3 and FLT3(D835Y) domains were purchased from Promega (cat #V4064, cat #V4514), respectively. According to the manufacturer's instructions, the optimal enzyme, ATP, and substrate concentrations were optimized using the ADP-Glo™ kinase assay method (Promega, USA). […] Thereafter, ADP-Glo™ reagent (5 μl) was added and reacted for an additional 40 minutes at room temperature. Finally, the detection reagent (kinase detection reagent, 10 μl) was added, followed by reaction at room temperature for 30 minutes, and the phosphorylation of the substrate peptide was measured by detecting the luciferase signal (integration time 0.5~1 sec) using a SpectraMax ID5 reader (Molecular Devices LLC., San Jose, CA, USA).

| Compound | GI50 [3] [µM] | other results |
| --- | --- | --- |
| O=C(NCCCC(F)(F)F)c1ccc2[nH]nc(-c3nc4ccc(N5CCCC5)cc4[nH]3)c2c1 [Example 13, 3-(6-(pyrrolidin-1-yl)-1H-benzo[d]imidazol-2-yl)-N-(4,4,4-trifluorobutyl)-1H-indazole-5-carboxamide] | 0.01 to 0.1 | GI50 [1]: 0.01 to 0.1 µM; GI50 [2]: 0.01 to 0.1 µM |
| N[C@H]1CC[C@H](NC(=O)c2ccc3[nH]nc(-c4nc5ccc(-c6ccco6)cc5[nH]4)c3c2)C1 [Example 80, N-((1S,3S)-3-aminocyclopentyl)-3-(6-(furan-2-yl)-1H-benzo[d]imidazol-2-yl)-1H-indazole-5-carboxamide] | < 0.01 | GI50 [1]: 0.01 to 0.1 µM; GI50 [2]: < 0.01 µM |
| O=C(NCC1CNC1)c1ccc2[nH]nc(-c3nc4ccc(-c5ccoc5)cc4[nH]3)c2c1 [Example 75, N-(azetidin-3-ylmethyl)-3-(6-(furan-3-yl)-1H-benzo[d]imidazol-2-yl)-1H-indazole-5-carboxamide] | 0.01 to 0.1 | GI50 [1]: 0.01 to 0.1 µM; GI50 [2]: < 0.01 µM |
| COc1ccc2nc(-c3n[nH]c4ccc(C(=O)NCCCN(C)C)cc34)[nH]c2c1 [Example 11, N-(3-(dimethylamino)propyl)-3-(6-methoxy-1H-benzo[d]imidazol-2-yl)-1H-indazole-5-carboxamide] | < 0.01 | IC50 (FLT3): < 0.01 µM |
| NCCCNC(=O)c1ccc2[nH]nc(-c3nc4ccc(CN5CCOCC5)cc4[nH]3)c2c1 [Example 26, N-(3-aminopropyl)-3-(6-(morpholinomethyl)-1H-benzo[d]imidazol-2-yl)-1H-indazole-5-carboxamide] | 0.1 to 1 | IC50 (FLT3): < 0.01 µM |
| NCCCNC(=O)c1ccc2[nH]nc(-c3ncc(-c4cccc(F)c4)[nH]3)c2c1 [Example 82, N-(3-aminopropyl)-3-(5-(3-fluorophenyl)-1H-imidazol-2-yl)-1H-indazole-5-carboxamide] | 0.01 to 0.1 | – |
| NCCCNC(=O)c1ccc2[nH]nc(-c3ncc(COc4ccccc4)[nH]3)c2c1 [Example 115, N-(3-aminopropyl)-3-(5-(phenoxymethyl)-1H-imidazol-2-yl)-1H-indazole-5-carboxamide] | > 1 | – |
| O=C(c1ccc2[nH]nc(-c3nc(-c4ccccc4)c[nH]3)c2c1)N1CCN(c2ccc(F)cc2)CC1 [Example 97, (4-(4-fluorophenyl)piperazin-1-yl)(3-(4-phenyl-1H-imidazol-2-yl)-1H-indazol-5-yl)methanone] | > 1 | – |
| NCCCNC(=O)c1ccc2[nH]nc(-c3ncc(-c4ccccc4F)[nH]3)c2c1 [Example 83, N-(3-aminopropyl)-3-(5-(2-fluorophenyl)-1H-imidazol-2-yl)-1H-indazole-5-carboxamide] | 0.01 to 0.1 | – |
| CN(C)CCNC(=O)c1ccc2[nH]nc(-c3nc(-c4ccccc4)c[nH]3)c2c1 [Example 95, N-(2-(dimethylamino)ethyl)-3-(4-phenyl-1H-imidazol-2-yl)-1H-indazole-5-carboxamide] | 0.1 to 1 | – |
| NCCCNC(=O)c1ccc2[nH]nc(-c3ncc(-c4cccc(N5CCOCC5)c4)[nH]3)c2c1 [Example 91, N-(3-aminopropyl)-3-(5-(3-morpholinophenyl)-1H-imidazol-2-yl)-1H-indazole-5-carboxamide] | 0.01 to 0.1 | – |
| Cc1ccc2nc(-c3n[nH]c4ccc(C(=O)NCCCN(C)C)cc34)[nH]c2c1 [Example 12, N-(3-(dimethylamino)propyl)-3-(6-methyl-1H-benzo[d]imidazol-2-yl)-1H-indazole-5-carboxamide] | < 0.01 | IC50 (FLT3): < 0.01 µM |
| CN(C)CCOc1ccc2nc(-c3n[nH]c4ccc(C(=O)NCCCN)cc34)[nH]c2c1 [Example 24, N-(3-aminopropyl)-3-(6-(2-(dimethylamino)ethoxy)-1H-benzo[d]imidazol-2-yl)-1H-indazole-5-carboxamide] | 0.1 to 1 | – |
| NCCCNC(=O)c1ccc2[nH]nc(-c3ncc(-c4ccc(Cl)c(F)c4)[nH]3)c2c1 [Example 85, N-(3-aminopropyl)-3-(5-(4-chloro-3-fluorophenyl)-1H-imidazol-2-yl)-1H-indazole-5-carboxamide] | 0.01 to 0.1 | – |
| O=C(c1ccc2[nH]nc(-c3nc4ccc(N5CCOCC5)cc4[nH]3)c2c1)N1C[C@@H]2C[C@H]1CN2 [Example 66, ((1S,4S)-2,5-diazabicyclo[2.2.1]heptan-2-yl)(3-(6-morpholino-1H-benzo[d]imidazol-2-yl)-1H-indazol-5-yl)methanone] | 0.01 to 0.1 | – |
| COc1c(Cl)cc(Cl)cc1-c1cnc(-c2n[nH]c3ccc(C(=O)NCCCN)cc23)[nH]1 [Example 87, N-(3-aminopropyl)-3-(5-(3,5-dichloro-2-methoxyphenyl)-1H-imidazol-2-yl)-1H-indazole-5-carboxamide] | 0.01 to 0.1 | – |
| NCCCNC(=O)c1ccc2[nH]nc(-c3nc4ccc(Br)cc4[nH]3)c2c1 [Example 28, N-(3-aminopropyl)-3-(6-bromo-1H-benzo[d]imidazol-2-yl)-1H-indazole-5-carboxamide] | 0.01 to 0.1 | – |
| NCCN1CCC(NC(=O)c2ccc3[nH]nc(-c4nc5ccccc5[nH]4)c3c2)CC1 [Example 112, N-(1-(2-aminoethyl)piperidin-4-yl)-3-(1H-benzo[d]imidazol-2-yl)-1H-indazole-5-carboxamide] | 0.01 to 0.1 | – |
| O=C(NC1CCNCC1)c1ccc2[nH]nc(-c3nc4ccc(F)cc4[nH]3)c2c1 [Example 40, 3-(6-fluoro-1H-benzo[d]imidazol-2-yl)-N-(piperidin-4-yl)-1H-indazole-5-carboxamide] | 0.01 to 0.1 | – |
| NCCCNC(=O)c1ccc2[nH]nc(-c3nc4ccc(Cl)cc4[nH]3)c2c1 [Example 27, N-(3-aminopropyl)-3-(6-chloro-1H-benzo[d]imidazol-2-yl)-1H-indazole-5-carboxamide] | 0.01 to 0.1 | – |
| CN(C)CCn1c(-c2n[nH]c3ccc(C(=O)NCCCN)cc23)nc2ccc(F)cc21 [Example 107, N-(3-aminopropyl)-3-(1-(2-(dimethylamino)ethyl)-6-fluoro-1H-benzo[d]imidazol-2-yl)-1H-indazole-5-carboxamide] | > 1 | – |
| C[C@@H]1CN(c2ccc3nc(-c4n[nH]c5ccc(C(=O)NCCCN)cc45)[nH]c3c2)C[C@H](C)N1 [Example 19, N-(3-aminopropyl)-3-(6-((3S,5R)-3,5-dimethylpiperazin-1-yl)-1H-benzo[d]imidazol-2-yl)-1H-indazole-5-carboxamide] | 0.1 to 1 | – |
| NC1CCN(CCNC(=O)c2ccc3[nH]nc(-c4nc5ccccc5[nH]4)c3c2)CC1 [Example 8, N-(2-(4-aminopiperidin-1-yl)ethyl)-3-(1H-benzo[d]imidazol-2-yl)-1H-indazole-5-carboxamide] | 0.01 to 0.1 | – |
| O=C(N[C@@H]1CCCNC1)c1ccc2[nH]nc(-c3nc4ccc(F)cc4[nH]3)c2c1 [Example 41, (R)-3-(6-fluoro-1H-benzo[d]imidazol-2-yl)-N-(piperidin-3-yl)-1H-indazole-5-carboxamide] | > 1 | – |
| NCCCNC(=O)c1ccc2[nH]nc(-c3ncc(-c4cccc(N)c4)[nH]3)c2c1 [Example 93, 3-(5-(3-aminophenyl)-1H-imidazol-2-yl)-N-(3-aminopropyl)-1H-indazole-5-carboxamide] | 0.1 to 1 | – |
| CN(C)CCCNC(=O)c1ccc2[nH]nc(-c3nc4cc(F)c(F)cc4[nH]3)c2c1 [Example 9, 3-(5,6-difluoro-1H-benzo[d]imidazol-2-yl)-N-(3-(dimethylamino)propyl)-1H-indazole-5-carboxamide] | 0.01 to 0.1 | – |
